Measured values reported in patent US9302999B2, “Substituted triazoles as herbicides” (E. I. DU PONT DE NEMOURS AND COMPANY, priority 2012, dated 2016).

Experiments:
Assay type in all cases: in vivo
[1] = system: winter wheat (Triticum aestivum); assay: Test C pre-/postemergence: winter wheat
Method in brief: (§1)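 Preemergence on seeds in loam/sand, postemergence on 2–18 cm (1–4-leaf) plants in peat-based medium; compounds in non-phytotoxic solvent with surfactant. After 13–15 days in greenhouse, visual rating versus controls, 0 (no effect) to 100 (complete control).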

[2] = system: morningglory (Ipomoea spp.); assay: Test A pre-/postemergence: morningglory
Method in brief: (§2)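 Visual 0–100 injury ratings (0 no effect, 100 complete control) taken about ten days after treatment, relative to untreated controls. Preemergence treatment was a directed soil spray; postemergence plants were 2–10 cm tall at one- to two-leaf stage. Soil: loam/sand blend.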

[3] = system: johnsongrass (Sorghum halepense); assay: Test C pre-/postemergence: johnsongrass
Method in brief: as §1

[4] = system: galium (catchweed bedstraw, Galium aparine); assay: Test C pre-/postemergence: galium
Method in brief: as §1

[5] = system: nutsedge, yellow (yellow nutsedge, Cyperus esculentus); assay: Test C pre-/postemergence: nutsedge, yellow
Method in brief: as §1

[6] = system: kochia (Kochia scoparia); assay: Test C pre-/postemergence: kochia; settings: Postemergence
Method in brief: as §1

[7] = system: barnyardgrass (Echinochloa crus-galli); assay: Test A pre-/postemergence: barnyardgrass
Method in brief: as §2

[8] = system: ryegrass, Italian (Italian ryegrass, Lolium multiflorum); assay: Test C pre-/postemergence: ryegrass, Italian
Method in brief: as §1

[9] = system: corn (Zea mays); assay: Test A pre-/postemergence: corn
Method in brief: as §2

[10] = system: large crabgrass (Digitaria sanguinalis); assay: Test C pre-/postemergence: large crabgrass
Method in brief: as §1

[11] = system: pigweed (Amaranthus retroflexus); assay: Test C pre-/postemergence: pigweed
Method in brief: as §1

[12] = Postemergence, 31 g ai/ha, scale 0 to 100 (0 no effect, 100 complete control)
[13] = Postemergence, 62 g ai/ha, scale 0 to 100 (0 no effect, 100 complete control)
[14] = Postemergence, 125 g ai/ha, scale 0 to 100, 0 no effect, 100 complete control
[15] = Postemergence, 250 g ai/ha, scale 0 to 100 (0 no effect, 100 complete control)
[16] = Preemergence, 31 g ai/ha, scale 0 (no effect) to 100 (complete control)
[17] = Preemergence, 62 g ai/ha, scale of 0 to 100, 0 is no effect, 100 is complete control
[18] = Preemergence, 125 g ai/ha, scale 0 to 100, 0 no effect, 100 complete control
[19] = Preemergence, 250 g ai/ha, scale 0 to 100, 0 no effect, 100 complete control
[20] = Preemergence, 125 g ai/ha, 0 to 100 scale where 0 is no effect and 100 is complete control
[21] = Preemergence, 500 g ai/ha, 0 to 100 scale (0 no effect, 100 complete control)
[22] = 31 g ai/ha, scale 0 to 100 (0 no effect, 100 complete control)
[23] = 62 g ai/ha, scale 0 to 100 (0 no effect, 100 complete control)
[24] = 125 g ai/ha, scale 0 to 100, 0 no effect, 100 complete control
[25] = 250 g ai/ha, scale 0 to 100 (0 no effect, 100 complete control)
[26] = Postemergence, 125 g ai/ha, 0 to 100 scale, 0 is no effect, 100 is complete control
[27] = Postemergence, 500 g ai/ha, 0 to 100 scale, 0 is no effect, 100 is complete control
[28] = Postemergence, 250 g ai/ha, scale 0 to 100

CCc1nn(-c2ccc(C(F)(F)F)cc2)nc1Oc1ccnc(C(F)(F)F)c1 [Compound 169]
Plant response rating, Wheat [1, 12]: 10
Plant response rating, Wheat [1, 13]: 10
Plant response rating, Wheat [1, 14]: 30
Plant response rating, Wheat [1, 15]: 30
Plant response rating, Wheat [1, 16]: 5
Plant response rating, Wheat [1, 17]: 15
Plant response rating, Wheat [1, 18]: 20
Plant response rating, Wheat [1, 19]: 50
Plant response rating, Morningglory [2, 20]: 20
Plant response rating, Morningglory [2, 21]: 40
Plant response rating, Johnsongrass [3, 12]: 15
Plant response rating, Johnsongrass [3, 13]: 30
Plant response rating, Johnsongrass [3, 14]: 35
Plant response rating, Johnsongrass [3, 15]: 50
Plant response rating, Johnsongrass [3, 16]: 20
Plant response rating, Johnsongrass [3, 17]: 75
Plant response rating, Johnsongrass [3, 18]: 95
Plant response rating, Johnsongrass [3, 19]: 98
Plant response rating, Galium [4, 12]: 80
Plant response rating, Galium [4, 13]: 90
Plant response rating, Galium [4, 14]: 90
Plant response rating, Galium [4, 15]: 95
Plant response rating, Galium [4, 16]: 100
Plant response rating, Galium [4, 17]: 100
Plant response rating, Galium [4, 18]: 100
Plant response rating, Galium [4, 19]: 100
Plant response rating, Nutsedge, Yellow [5, 12]: 5
Plant response rating, Nutsedge, Yellow [5, 13]: 5
Plant response rating, Nutsedge, Yellow [5, 14]: 10
Plant response rating, Nutsedge, Yellow [5, 15]: 10
Plant response rating, Nutsedge, Yellow [5, 16]: 0
Plant response rating, Nutsedge, Yellow [5, 17]: 5
Plant response rating, Nutsedge, Yellow [5, 18]: 5
Plant response rating, Nutsedge, Yellow [5, 19]: 5
Plant response rating, Kochia [6, 22]: 85
Plant response rating, Kochia [6, 23]: 90
Plant response rating, Kochia [6, 24]: 90
Plant response rating, Kochia [6, 25]: 90
Plant response rating, Barnyardgrass [7, 26]: 80
Barnyardgrass plant response rating [7, 27]: 90
Plant response rating, Barnyardgrass [7, 20]: 80
Plant response rating, Barnyardgrass [7, 21]: 90
Plant response rating, Ryegrass, Italian [8, 12]: 10
Plant response rating, Ryegrass, Italian [8, 13]: 10
Plant response rating, Ryegrass, Italian [8, 14]: 25
Plant response rating, Ryegrass, Italian [8, 15]: 40
Plant response rating, Ryegrass, Italian [8, 16]: 85
Plant response rating, Ryegrass, Italian [8, 17]: 90
Plant response rating, Ryegrass, Italian [8, 18]: 90
Plant response rating, Ryegrass, Italian [8, 19]: 95
Plant response rating, Corn [9, 26]: 10
Corn plant response rating [9, 27]: 50
Plant response rating, Corn [9, 20]: 20
Plant response rating, Corn [9, 21]: 20
Plant response rating, Crabgrass, Large [10, 12]: 35
Plant response rating, Crabgrass, Large [10, 13]: 35
Plant response rating, Crabgrass, Large [10, 14]: 40
Plant response rating, Crabgrass, Large [10, 28]: 80
Plant response rating, Crabgrass, Large [10, 16]: 100
Plant response rating, Crabgrass, Large [10, 17]: 100
Plant response rating, Crabgrass, Large [10, 18]: 100
Plant response rating, Crabgrass, Large [10, 19]: 100
Plant response rating, Pigweed [11, 12]: 95
Plant response rating, Pigweed [11, 13]: 95
Plant response rating, Pigweed [11, 14]: 100
Plant response rating, Pigweed [11, 15]: 100
Plant response rating, Pigweed [11, 16]: 100
Plant response rating, Pigweed [11, 17]: 100
Plant response rating, Pigweed [11, 18]: 100
Plant response rating, Pigweed [11, 19]: 100

CCCc1nn(-c2ccc(C(F)(F)F)cc2)nc1Oc1ccnc(C(F)(F)F)c1 [Compound 170]
Plant response rating, Wheat [1, 12]: 10
Plant response rating, Wheat [1, 13]: 20
Plant response rating, Wheat [1, 14]: 35
Plant response rating, Wheat [1, 15]: 35
Plant response rating, Wheat [1, 16]: 10
Plant response rating, Wheat [1, 17]: 40
Plant response rating, Wheat [1, 18]: 60
Plant response rating, Wheat [1, 19]: 60
Plant response rating, Morningglory [2, 26]: 100
Morningglory plant response rating [2, 27]: 100
Plant response rating, Morningglory [2, 20]: 70
Plant response rating, Morningglory [2, 21]: 90
Plant response rating, Johnsongrass [3, 12]: 20
Plant response rating, Johnsongrass [3, 13]: 25
Plant response rating, Johnsongrass [3, 14]: 80
Plant response rating, Johnsongrass [3, 15]: 98
Plant response rating, Johnsongrass [3, 16]: 50
Plant response rating, Johnsongrass [3, 17]: 75
Plant response rating, Johnsongrass [3, 18]: 95
Plant response rating, Johnsongrass [3, 19]: 95
Plant response rating, Galium [4, 12]: 80
Plant response rating, Galium [4, 13]: 90
Plant response rating, Galium [4, 14]: 90
Plant response rating, Galium [4, 15]: 90
Plant response rating, Galium [4, 16]: 98
Plant response rating, Galium [4, 17]: 100
Plant response rating, Galium [4, 18]: 100
Plant response rating, Galium [4, 19]: 100
Plant response rating, Nutsedge, Yellow [5, 12]: 5
Plant response rating, Nutsedge, Yellow [5, 13]: 5
Plant response rating, Nutsedge, Yellow [5, 14]: 5
Plant response rating, Nutsedge, Yellow [5, 15]: 10
Plant response rating, Nutsedge, Yellow [5, 16]: 0
Plant response rating, Nutsedge, Yellow [5, 17]: 5
Plant response rating, Nutsedge, Yellow [5, 19]: 5
Plant response rating, Kochia [6, 22]: 90
Plant response rating, Kochia [6, 23]: 90
Plant response rating, Kochia [6, 24]: 90
Plant response rating, Kochia [6, 25]: 90
Plant response rating, Barnyardgrass [7, 26]: 90
Barnyardgrass plant response rating [7, 27]: 90
Plant response rating, Ryegrass, Italian [8, 12]: 15
Plant response rating, Ryegrass, Italian [8, 13]: 35
Plant response rating, Ryegrass, Italian [8, 14]: 35
Plant response rating, Ryegrass, Italian [8, 15]: 70
Plant response rating, Ryegrass, Italian [8, 16]: 55
Plant response rating, Ryegrass, Italian [8, 17]: 90
Plant response rating, Ryegrass, Italian [8, 18]: 95
Plant response rating, Ryegrass, Italian [8, 19]: 95
Plant response rating, Corn [9, 26]: 30
Corn plant response rating [9, 27]: 50
Plant response rating, Corn [9, 20]: 30
Plant response rating, Corn [9, 21]: 40
Plant response rating, Crabgrass, Large [10, 12]: 30
Plant response rating, Crabgrass, Large [10, 13]: 30
Plant response rating, Crabgrass, Large [10, 14]: 80
Plant response rating, Crabgrass, Large [10, 28]: 90
Plant response rating, Crabgrass, Large [10, 16]: 100
Plant response rating, Crabgrass, Large [10, 17]: 100
Plant response rating, Crabgrass, Large [10, 18]: 100
Plant response rating, Crabgrass, Large [10, 19]: 100
Plant response rating, Pigweed [11, 12]: 100
Plant response rating, Pigweed [11, 13]: 100
Plant response rating, Pigweed [11, 14]: 100
Plant response rating, Pigweed [11, 15]: 100
Plant response rating, Pigweed [11, 16]: 100
Plant response rating, Pigweed [11, 17]: 100
Plant response rating, Pigweed [11, 18]: 100
Plant response rating, Pigweed [11, 19]: 100
